According to US20230390402A1, “IONIZABLE CATIONIC LIPID ANALOG MATERIAL AND USE THEREOF AS DRUG DELIVERY CARRIER” (GUANGZHOU LIDE BIOMEDICINE TECHNOLOGY CO., LTD., priority 2021, published 2023):

Assays:
HeLa cells [1] = assay: Transfection of GFP-expressing plasmid DNA in HeLa cells (FCM); format: cell-based; settings: material 0.25-8 μg/well, plasmid DNA 0.5 μg/well, 24 h, compared with Lipofectamine 2000
Method: In this experiment, with GFP-expressing plasmid DNA as a reporter gene, a gene transfection efficiency of a cationic lipid analog material in HeLa cells was detected. A specific method was as follows:
HeLa cells were inoculated in a 24-well plate and cultured in an incubator for 12 h; each of different cationic lipid analog materials—(0.25 μg/well to 8 μg/well) was mixed with GFP-expressing plasmid DNA (0.5 μg/well) in 40 μL of a sodium acetate buffer (25 mM, […] resulting mixtures each were allowed to stand for 10 min and then diluted with 460 μL of a Opti-MEM medium to obtain plasmid DNA-loaded cationic lipid analog complex particle solutions; a medium for the HeLa cells in the plate was removed, then the HeLa cells were washed once with PBS, and the complex particle solutions each were added; and the cells were further cultured for 24 h, and then a plasmid DNA transfection efficiency in cells was analyzed by FCM. A commercial gene transfection reagent Lipofectamine 2000 was adopted as a positive control.

HeLa cells [2] = assay: Transfection of luciferase-expressing plasmid DNA in HeLa cells; format: cell-based; settings: 24 h, compared with Lipofectamine 2000
Method: In this example, with luciferase-expressing plasmid DNA as a reporter gene, a gene transfection efficiency of a cationic lipid analog material in HeLa cells was detected. A specific operation method was as follows: HeLa cells were inoculated in a 96-well plate and cultured in an incubator for 12 h; each of different cationic lipid analog materials was mixed with luciferase-expressing plasmid DNA (0.5 μg) in 40 μL of a sodium acetate buffer (25 mM, pH 5.2), and resulting mixtures each were allowed to stand for 10 min and then diluted with 460 μL of a Opti-MEM medium to obtain plasmid DNA-loaded cationic lipid analog complex particle solutions; a medium for the HeLa cells in the plate was removed, then the HeLa cells were washed once with PBS, and the complex particle solutions each were added in a volume of 125 μL; the cells were further cultured for 24 h, then a resulting culture supernatant was discarded, and the cells were fully lysed; and a substrate was added at 50 μl/well, and an expression level of luciferase was detected by a multi-mode microplate reader.

DC 2.4 cells = assay: Transfection of eGFP-expressing mRNA in DC 2.4 cells (FCM and LSCM); format: cell-based, mouse; settings: material 0.25-2 μg/well, mRNA 0.2 μg/well, 24 h, compared with Lipofectamine 2000
Method: In this experiment, with eGFP-mRNA as model mRNA, an mRNA transfection efficiency of a cationic lipid analog material in DC 2.4 cells was detected. A specific operation method was as follows:
DC 2.4 cells were inoculated in a 48-well plate and cultured in an incubator for 12 h; each of different cationic lipid analog materials (0.25 μg/well to 2 μg/well) was mixed with eGFP-expressing mRNA (0.2 μg/well) in 20 μL of a sodium acetate buffer (25 mM, pH 5.2), and resulting mixtures each were allowed to stand for 10 min and then diluted with 230 μL of a Opti-MEM medium to obtain mRNA-loaded complex particle solutions; a medium for the DC 2.4 cells in the plate was removed, then the DC 2.4 cells were washed once with PBS, and the complex particle solutions each were added; and the cells were cultured for 24 h, an mRNA transfection efficiency in cells was observed by FCM and LSCM. A commercial gene transfection reagent Lipofectamine 2000 was adopted as a positive control.

Structure (SMILES)	transfection efficiency of GFP-expressing plasmid DNA (positive rate) (HeLa cells [1])	transfection efficiency of luciferase-expressing plasmid DNA (luciferase expression) (HeLa cells [2])	mRNA transfection efficiency (eGFP-mRNA) (DC 2.4 cells)
CCCCCCCCCCCCCC(=O)N(CCCCN(C)C)C(C(=O)NCCCCCCNC(=O)C(C(C)C)N(CCCN(C)C)C(=O)CCCCCCCCCCCCC)C(C)C (stereo not shown) [I1R2C14A1]	equivalent to or higher than	equivalent to or higher than	equivalent to or higher than
CCCCCCCCCCCCCCCC(=O)N(CCCN(C)C)C(C(=O)NCCCCCCNC(=O)C(C(C)C)N(CCCN(C)C)C(=O)CCCCCCCCCCCCCCC)C(C)C (stereo not shown) [I1R2C16A1]			equivalent to or higher than
CCCCCCCC/C=C\CCCCCCCC(=O)N(CCCN(C)C)C(C(=O)NCCCCCCNC(=O)C(C(C)C)N(CCCN(C)C)C(=O)CCCCCCC/C=C\CCCCCCCC)C(C)C (stereo not shown) [I1R2C18-1A1]			equivalent to or higher than
CCCCC/C=C\C/C=C\CCCCCCCC(=O)N(CCCN(C)C)C(C(=O)NCCCCCCNC(=O)C(C(C)C)N(CCCN(C)C)C(=O)CCCCCCC/C=C\C/C=C\CCCCC)C(C)C (stereo not shown) [I1R2C18-2A1]	equivalent to or higher than		equivalent to or higher than
CCCCCCCCCCCCCCCCCC(=O)N(CCCN(C)C)C(C(=O)NCCCCCCNC(=O)C(C(C)C)N(CCCN(C)C)C(=O)CCCCCCCCCCCCCCCCC)C(C)C (stereo not shown) [I1R2C18A1]			equivalent to or higher than
CCCCCCCCCCCCCC(=O)N(CCC1CCCN1C)C(C(=O)NCCCCCCNC(=O)C(C(C)C)N(CCC1CCCN1C)C(=O)CCCCCCCCCCCCC)C(C)C (stereo not shown) [I1R11C14A1]	equivalent to or higher than	equivalent to or higher than	equivalent to or higher than
CCCCCCCCCCCCCCCC(=O)N(CCC1CCCN1C)C(C(=O)NCCCCCCNC(=O)C(C(C)C)N(CCC1CCCN1C)C(=O)CCCCCCCCCCCCCCC)C(C)C (stereo not shown) [I1R11C16A1]			equivalent to or higher than
CCCCCCCCCCCCCCCCCC(=O)N(CCC1CCCN1C)C(C(=O)NCCCCCCNC(=O)C(C(C)C)N(CCC1CCCN1C)C(=O)CCCCCCCCCCCCCCCCC)C(C)C (stereo not shown) [I1R11C18A1]			equivalent to or higher than
CCCCCCCCCCCCCC(=O)N(CCN(C)C)C(C(=O)NCCOCCOCCNC(=O)C(C(C)C)N(CCN(C)C)C(=O)CCCCCCCCCCCCC)C(C)C (stereo not shown) [I2R1C14A1]	equivalent to or higher than	equivalent to or higher than	equivalent to or higher than
CCCCCCCCCCCCCCCC(=O)N(CCN(C)C)C(C(=O)NCCOCCOCCNC(=O)C(C(C)C)N(CCN(C)C)C(=O)CCCCCCCCCCCCCCC)C(C)C (stereo not shown) [I2R1C16A1]	equivalent to or higher than	equivalent to or higher than	equivalent to or higher than
CCCCCCCC/C=C\CCCCCCCC(=O)N(CCN(C)C)C(C(=O)NCCOCCOCCNC(=O)C(C(C)C)N(CCN(C)C)C(=O)CCCCCCC/C=C\CCCCCCCC)C(C)C (stereo not shown) [I2R1C18-1A1]	equivalent to or higher than	equivalent to or higher than	equivalent to or higher than
CCCCC/C=C\C/C=C\CCCCCCCC(=O)N(CCN(C)C)C(C(=O)NCCOCCOCCNC(=O)C(C(C)C)N(CCN(C)C)C(=O)CCCCCCC/C=C\C/C=C\CCCCC)C(C)C (stereo not shown) [I2R1C18-2A1]	equivalent to or higher than		
CCCCCCCCCCCCCC(=O)N(CCCN(C)C)C(C(=O)NCCOCCOCCNC(=O)C(C(C)C)N(CCCN(C)C)C(=O)CCCCCCCCCCCCC)C(C)C (stereo not shown) [I2R2C14A1]	equivalent to or higher than		equivalent to or higher than
CCCCCCCCCCCCCC(=O)C(CCCN(CC)CC)C(C(=O)NCCOCCOCCNC(=O)C(C(C)C)N(CCCN(CC)CC)C(=O)CCCCCCCCCCCCC)C(C)C (stereo not shown) [I2R3C14A1]			equivalent to or higher than
CCCCCCCCCCCCCCCC(=O)C(CCCN(CC)CC)C(C(=O)NCCOCCOCCNC(=O)C(C(C)C)N(CCCN(CC)CC)C(=O)CCCCCCCCCCCCCCC)C(C)C (stereo not shown) [I2R3C16A1]	equivalent to or higher than	equivalent to or higher than	equivalent to or higher than
CCCCCCCCCCCCCCCCCC(=O)C(CCCN(CC)CC)C(C(=O)NCCOCCOCCNC(=O)C(C(C)C)N(CCCN(CC)CC)C(=O)CCCCCCCCCCCCCCCCC)C(C)C (stereo not shown) [I2R3C18A1]	equivalent to or higher than	equivalent to or higher than	equivalent to or higher than
CCCCCCCCCCCCCCN(CCC1CCCN1C)C(C(=O)NCCOCCOCCNC(=O)C(C(C)C)N(CCC1CCCN1C)C(=O)CCCCCCCCCCCCC)C(C)C (stereo not shown) [I2R11C14A1]	equivalent to or higher than		equivalent to or higher than
CCCCCCCCCCCCCCCCN(CCC1CCCN1C)C(C(=O)NCCOCCOCCNC(=O)C(C(C)C)N(CCC1CCCN1C)C(=O)CCCCCCCCCCCCCCC)C(C)C (stereo not shown) [I2R11C16A1]	equivalent to or higher than		equivalent to or higher than
CCCCCCCC/C=C\CCCCCCCC(=O)N(CCC1CCCN1C)C(C(=O)NCCOCCOCCNC(=O)C(C(C)C)N(CCC1CCCN1C)C(=O)CCCCCCC/C=C\CCCCCCCC)C(C)C (stereo not shown) [I2R11C18-1A1]	equivalent to or higher than		equivalent to or higher than
CCCCC/C=C\C/C=C\CCCCCCCC(=O)N(CCC1CCCN1C)C(C(=O)NCCOCCOCCNC(=O)C(C(C)C)N(CCC1CCCN1C)C(=O)CCCCCCC/C=C\C/C=C\CCCCC)C(C)C (stereo not shown) [I2R11C18-2A1]	equivalent to or higher than	equivalent to or higher than	equivalent to or higher than
CCCCCCCCCCCCCCCCCCN(CCC1CCCN1C)C(C(=O)NCCOCCOCCNC(=O)C(C(C)C)N(CCC1CCCN1C)C(=O)CCCCCCCCCCCCCCCCC)C(C)C (stereo not shown) [I2R11C18A1]	equivalent to or higher than		equivalent to or higher than
